The subject of this experiment is P388 leukemia ip, CD2F1 mice, survival T/C. In words: NCI In Vivo Anticancer Drug Screen. Data for tumor model P388 Leukemia (intraperitoneal) in CD2F1 (CDF1) mice. The note with it: endpoint: median survival time, higher = longer survival. The essentials:
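Mice carrying the transplanted tumor received test compound or vehicle. Survival was recorded in each group, and the value is the treated-group measurement divided by that of the vehicle-treated control group.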

[1] abbreviates: dose: 60.0 mg/kg/injection, schedule: Q01DX005 (ip), vehicle: Klucel (hydroxypropylcellulose) (HPC).
[2] abbreviates: dose: 50.0 mg/kg/injection, schedule: Q01DX009 (ip), vehicle: saline with Tween-80.
Setting [3] is: dose: 100.0 mg/kg/injection, schedule: Q01DX009 (ip), vehicle: saline with Tween-80.
The mark [4] stands for this setting: dose: 12.5 mg/kg/injection, schedule: Q01DX009 (ip), vehicle: saline with Tween-80.
The mark [5] stands for this setting: dose: 25.0 mg/kg/injection, schedule: Q01DX009 (ip), vehicle: saline with Tween-80.
The mark [6] stands for this setting: dose: 50.0 mg/kg/injection, schedule: Q01DX005 (ip), vehicle: Klucel (hydroxypropylcellulose) (HPC).

Where “and” joins values, the source holds several entries; their conditions need not be identical. Equal entries are not always repeated. Inconclusive results and toxic doses are left out.

For `COCN1C(=O)N2C(c3ccccc3)(c3ccccc3)C(C(=O)OC)=C(C(=O)OC)P12(c1ccccc1)c1ccccc1`, the T/C is 107 % of control (dose: 15.0 mg/kg/injection, schedule: Q01DX005 (ip), vehicle: Klucel (hydroxypropylcellulose) (HPC)); 99 % of control (dose: 30.0 mg/kg/injection, schedule: Q01DX005 (ip), vehicle: Klucel (hydroxypropylcellulose) (HPC)); 91 % of control and 97 % of control under setting [1]; 87 % of control (dose: 240.0 mg/kg/injection, schedule: Q01DX005 (ip), vehicle: Klucel (hydroxypropylcellulose) (HPC)).
Take `O=C1OCC/C1=C1/NC2CCCCC2NC1=O` (stereo not given): the T/C is, setting by setting: under setting [2], 94 % of control; under setting [3], 94 % of control.
As to `O=C(O)c1ccc(NC(C[N+](=O)[O-])C(F)(F)C(F)(F)C(F)(F)F)cc1` (stereo not given), the T/C by setting is: (dose: 100.0 mg/kg/injection, schedule: Q01DX001 (ip), vehicle: saline sonified) 100 % of control; (dose: 200.0 mg/kg/injection, schedule: Q01DX001 (ip), vehicle: saline sonified) 100 % of control; (dose: 400.0 mg/kg/injection, schedule: Q01DX001 (ip), vehicle: saline sonified) 100 % of control.
Take `O=C(S)CC1(O)CCCCC1`: the T/C by setting is: (dose: 100.0 mg/kg/injection, schedule: Q04DX003 (ip), vehicle: Klucel (hydroxypropylcellulose) (HPC)) 99 % of control; (dose: 200.0 mg/kg/injection, schedule: Q04DX003 (ip), vehicle: Klucel (hydroxypropylcellulose) (HPC)) 100 % of control; (dose: 400.0 mg/kg/injection, schedule: Q04DX003 (ip), vehicle: Klucel (hydroxypropylcellulose) (HPC)) 96 % of control.
`C1COCCOCCOCCOCCO1.[Cl][Sn]([Cl])([Cl])[Cl]`: the T/C is 100 % of control under setting [1] and 99 % of control (dose: 120.0 mg/kg/injection, schedule: Q01DX005 (ip), vehicle: Klucel (hydroxypropylcellulose) (HPC)).
On to `O=[N+]([O-])c1cc2no[n+]([O-])c2cc1N1CCCCC1`, for which the T/C is, setting by setting: (dose: 3.75 mg/kg/injection, schedule: Q01DX009 (ip), vehicle: saline) 97 % of control; (dose: 3.75 mg/kg/injection, schedule: Q01DX009 (ip), vehicle: suspension in saline) 94 % of control; (dose: 7.5 mg/kg/injection, schedule: Q01DX009 (ip), vehicle: saline) 114 % of control; (dose: 7.5 mg/kg/injection, schedule: Q01DX009 (ip), vehicle: suspension in saline) 103 % of control; (dose: 15.0 mg/kg/injection, schedule: Q01DX009 (ip), vehicle: saline) 101 % of control; (dose: 15.0 mg/kg/injection, schedule: Q01DX009 (ip), vehicle: suspension in saline) 103 % of control. The T/C runs as follows: (dose: 30.0 mg/kg/injection, schedule: Q01DX009 (ip), vehicle: saline) 108 % of control; (dose: 30.0 mg/kg/injection, schedule: Q01DX009 (ip), vehicle: suspension in saline) 122 % of control.
For the compound `COC(=O)c1cn[nH]c1CC#N`, the T/C was 92 % of control (dose: 100.0 mg/kg/injection, schedule: Q04DX002 (ip), vehicle: saline with Tween-80) and 100 % of control (dose: 200.0 mg/kg/injection, schedule: Q04DX002 (ip), vehicle: saline with Tween-80).
`O=C(O)CCCCCCCCC#CC#CCO`: the T/C reads like this: (dose: 50.0 mg/kg/injection, schedule: Q01DX005 (ip), vehicle: saline with Tween-80) 101 % of control; (dose: 100.0 mg/kg/injection, schedule: Q01DX005 (ip), vehicle: saline with Tween-80) 99 % of control; (dose: 200.0 mg/kg/injection, schedule: Q01DX005 (ip), vehicle: saline with Tween-80) 95 % of control.
With `CC(CN=Cc1ccccc1O)N=Cc1ccccc1O.[Zn]` (stereo not given), the T/C runs as follows: (dose: 6.25 mg/kg/injection, schedule: Q01DX009 (ip), vehicle: saline with Tween-80) 103 % of control; under setting [4], 111 % of control; under setting [5], 93 % of control and 97 % of control; under setting [2], 99 % of control.
For `CCCCCCCCCCCCCCCC[N+]1(CC)CCOCC1`, the T/C by setting is: (dose: 1.56 mg/kg/injection, schedule: Q01DX009 (ip), vehicle: saline) 105 % of control and 100 % of control; (dose: 3.12 mg/kg/injection, schedule: Q01DX009 (ip), vehicle: saline) 99 % of control; (dose: 12.5 mg/kg/injection, schedule: Q01DX009 (ip), vehicle: saline) 115 % of control and 105 % of control.
Regarding `c1ccc2c(c1)Oc1cccc3cccc-2c13`, the T/C was 97 % of control under setting [6]; 101 % of control (dose: 100.0 mg/kg/injection, schedule: Q01DX005 (ip), vehicle: Klucel (hydroxypropylcellulose) (HPC)); 101 % of control (dose: 200.0 mg/kg/injection, schedule: Q01DX005 (ip), vehicle: Klucel (hydroxypropylcellulose) (HPC)).
With `O=C(O)CCCCCCC(=O)CCl`, the T/C runs as follows: (dose: 25.0 mg/kg/injection, schedule: Q04DX003 (ip), vehicle: saline) 110 % of control; (dose: 50.0 mg/kg/injection, schedule: Q04DX003 (ip), vehicle: saline) 110 % of control; (dose: 50.0 mg/kg/injection, schedule: Q04DX003 (ip), vehicle: suspension in saline) 119 % of control; (dose: 100.0 mg/kg/injection, schedule: Q04DX003 (ip), vehicle: saline) 121 % of control; (dose: 100.0 mg/kg/injection, schedule: Q04DX003 (ip), vehicle: suspension in saline) 116 % of control.
Regarding `N#CC(C#N)=CN1CCCCCC1`, the T/C by setting is: (dose: 6.25 mg/kg/injection, schedule: Q04DX003 (ip), vehicle: saline with Tween-80) 104 % of control; (dose: 12.5 mg/kg/injection, schedule: Q04DX003 (ip), vehicle: saline with Tween-80) 100 % of control.
`CC1CC(C)CN(C)C1` (stereo not given): the T/C (dose: 50.0 mg/kg/injection, schedule: Q01DX005 (ip), vehicle: saline) was 100 % of control and the T/C (dose: 100.0 mg/kg/injection, schedule: Q01DX005 (ip), vehicle: saline) is 100 % of control.
As to `c1ccc2c(Nc3ccc4c(c3)OCO4)c3c(nc2c1)CCCC3`, the T/C (dose: 12.5 mg/kg/injection, schedule: Q01DX005 (ip), vehicle: Klucel (hydroxypropylcellulose) (HPC)) is 102 % of control; the T/C (dose: 25.0 mg/kg/injection, schedule: Q01DX005 (ip), vehicle: Klucel (hydroxypropylcellulose) (HPC)) was 101 % of control; the T/C under setting [6] is 100 % of control and 112 % of control.
Regarding `CON(C)CC(Cl)c1ccccc1` (stereo not given), the T/C by setting is: under setting [4], 109 % of control; under setting [5], 109 % of control; under setting [2], 104 % of control.
For the compound `Cc1cccc(-n2c(-c3ccc([N+](=O)[O-])cc3)csc2=NC(=O)c2cccc([N+](=O)[O-])c2)c1C`, the T/C reads like this: under setting [2], 91 % of control; under setting [3], 87 % of control; (dose: 200.0 mg/kg/injection, schedule: Q01DX009 (ip), vehicle: saline with Tween-80) 87 % of control.
For the compound `C=CC[n+]1ccc(/C=N\NC(N)=S)c2ccccc21`, the T/C is, setting by setting: under setting [2], 116 % of control; under setting [3], 110 % of control.
In the case of `CNc1ccc(O)cc1`, the T/C is, setting by setting: (dose: 5.0 mg/kg/injection, schedule: Q01DX009 (ip), vehicle: saline sonified) 100 % of control; (dose: 10.0 mg/kg/injection, schedule: Q01DX009 (ip), vehicle: saline sonified) 104 % of control; (dose: 20.0 mg/kg/injection, schedule: Q01DX009 (ip), vehicle: saline sonified) 100 % of control.
As for `CC(=O)/C(Cl)=N\O`, the T/C runs as follows: (dose: 3.12 mg/kg/injection, schedule: Q01DX005 (ip), vehicle: saline) 100 % of control; (dose: 6.25 mg/kg/injection, schedule: Q01DX005 (ip), vehicle: saline) 107 % of control; (dose: 12.5 mg/kg/injection, schedule: Q01DX005 (ip), vehicle: saline) 109 % of control.
Regarding `CCNC(=NC)c1ccc(NC(=O)c2ccc(C(=O)Nc3ccc(C(=NC)NCC)cc3)cc2)cc1`, the T/C (dose: 1.5 mg/kg/injection, schedule: Q04DX003 (ip), vehicle: saline with Tween-80) was 95 % of control; the T/C (dose: 3.0 mg/kg/injection, schedule: Q01DX009 (ip), vehicle: saline with Tween-80) was 172 % of control; the T/C (dose: 3.0 mg/kg/injection, schedule: Q04DX003 (ip), vehicle: saline with Tween-80) was 100 % of control; the T/C (dose: 6.0 mg/kg/injection, schedule: Q04DX003 (ip), vehicle: saline with Tween-80) is 109 % of control.
Regarding `COc1cccc(C=O)c1OS(=O)(=O)c1ccc(C)cc1`, the T/C runs as follows: (dose: 25.0 mg/kg/injection, schedule: Q01DX009 (ip), vehicle: other) 101 % of control; (dose: 50.0 mg/kg/injection, schedule: Q01DX009 (ip), vehicle: other) 108 % of control; (dose: 100.0 mg/kg/injection, schedule: Q01DX009 (ip), vehicle: other) 108 % of control.
